Source: US20120129811A1, “TRICYCLIC INHIBITORS OF PRO-MATRIX METALLOPROTEINASE ACTIVATION” (priority 2010, published 2012)
Structures can show the parent of a compound that is named as a salt.

Tests used:
[1] = biological target: T1, proMMP9(20-445;ΔFnII) (SEQ ID NO:6) (Homo sapiens, UniProt P14780, DEL216-390); assay: ThermoFluor binding assay with proMMP9(20-445;ΔFnII)
T1 construct: start methionine (N); made in house; host or cells: E. coli BL21(DE3) RIL
T1 sequence (P14780 with tags, fused parts or gaps DEL216-390): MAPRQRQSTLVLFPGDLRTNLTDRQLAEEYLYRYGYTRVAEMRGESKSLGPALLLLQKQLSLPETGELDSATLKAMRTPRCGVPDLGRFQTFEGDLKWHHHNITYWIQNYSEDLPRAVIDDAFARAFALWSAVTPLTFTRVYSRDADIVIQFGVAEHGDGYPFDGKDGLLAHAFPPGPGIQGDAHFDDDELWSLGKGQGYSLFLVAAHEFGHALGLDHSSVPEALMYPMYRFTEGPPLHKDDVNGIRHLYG
Experimental: (§1) The ThermoFluor® (TF) assay is a 384-well plate-based binding assay that measures thermal stability of proteins (Biomol Screen 2001, 6, 429-40; Biochemistry 2005, 44, 5258-66). The experiments were carried out using instruments available from Johnson & Johnson Pharmaceutical Research & Development, LLC. TF dye used in all experiments was […] (1,8-ANS) (Invitrogen: A-47).
(§2) Compounds were arranged in a pre-dispensed plate (Greiner Bio-one: 781280), wherein compounds were serially diluted in 100% DMSO across 11 columns within a series. Columns 12 and 24 were used as DMSO reference and contained no compound. For multiple compound concentration-response experiments, the compound aliquots (50 nL) were robotically predispensed directly into black 384-well polypropylene PCR microplates (Abgene: TF-0384/k) using a Cartesian Hummingbird liquid handler (DigiLab, Holliston, Mass.). Following compound dispense, protein and dye solutions were added to achieve the final assay volume of 3 μL. The assay solutions were overlayed with 1 μL of silicone oil (Fluka, type DC 200: 85411) to prevent evaporation.
(§3) Assay plates were robotically loaded onto a thermostatically controlled PCR-type thermal block and then heated from 40 to 90° C. at a ramp-rate of 1° C./min for all experiments. Fluorescence was measured by continuous illumination with UV light (Hamamatsu LC6) supplied via fiber optics and filtered through a band-pass filter (380-400 nm; >60D cutoff). Fluorescence emission of the entire 384-well plate was detected by measuring light intensity using a CCD camera (Sensys, Roper Scientific) filtered to detect 500±25 nm, resulting in simultaneous and independent readings of all 384 wells. A single image with 20-sec exposure time was collected at each temperature, and the sum of the pixel intensity in a given area of the assay plate was recorded vs temperature and fit to standard equations to yield the Tm (J Biomol Screen 2001, 6, 429-40).
(§4) Thermodynamic parameters necessary for fitting compound binding for each proMMP were estimated by differential scanning calorimetry (DSC) and from ThermoFluor® data. The heat capacity of unfolding for each protein was estimated from the molecular weight and from ThermoFluor® dosing data.
ThermoFluor® with proMMP9(20-445; ΔFnII (SEQ ID NO:6)
The protein sample preparations included a desalting buffer exchange step via a PD-10 gravity column (GE Healthcare). The desalting buffer exchange was performed prior to diluting the protein to the final assay concentration of 2.8 μM proMMP9(20-445;ΔFnII) (SEQ ID NO:6). The concentration of proMMP9(20-445;ΔFnII) (SEQ ID NO:6) was determined spectrophotometrically based on a calculated extinction coefficient of ε280=39880 M^−1 cm^−1, a calculated molecular weight of 28.2 kDa, and calculated pI of 5.5. ThermoFluor® reference conditions were define as follows: 80 μg/mL (2.8 μM) proMMP9(20-445;ΔFnII) (SEQ ID NO:6), 50 μM 1,8-ANS, pH 7.0 Buffer (50 mM HEPES pH 7.0, 100 mM NaCl, 0.001% Tween-20, 2.5 mM MgCl2, 300 μM CaCl2). The thermodynamic parameters for proMMP9(20-445;ΔFnII) (SEQ ID NO:6) are as follows: Tm (° C.)=72 (+/−0.1), ΔUH(Tm) (cal mol^−1)=160000(+/−5000), ΔUSTm (cal mol^−1 K^−1)=434, ΔUCp (cal mol^−1 K^−1)=2400.

[2] = biological target: T2, proMMP9(67-444;ΔFnII) (SEQ ID NO:5) (Homo sapiens, UniProt P14780, DEL216-390); assay: ThermoFluor binding assay with proMMP9(67-444;ΔFnII)
T2 construct: start methionine (N); made in house; host or cells: E. coli BL21(DE3) RIL
T2 sequence (P14780 with tags, fused parts or gaps DEL216-390): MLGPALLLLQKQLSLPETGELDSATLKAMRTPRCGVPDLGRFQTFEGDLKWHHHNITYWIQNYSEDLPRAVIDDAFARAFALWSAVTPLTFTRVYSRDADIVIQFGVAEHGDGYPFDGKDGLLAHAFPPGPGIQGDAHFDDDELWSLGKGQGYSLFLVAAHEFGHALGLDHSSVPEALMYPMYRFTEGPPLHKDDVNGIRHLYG
Experimental: as §1, §2, §3, §4
ThermoFluor® with proMMP9(67-444;ΔFnM (SEQ ID NO:5)
The protein sample preparations had to include a desalting buffer exchange step via a PD-10 gravity column (GE Healthcare). The desalting buffer exchange was performed prior to diluting the protein to the final assay concentration of 3.5 μM proMMP9(67-444;ΔFnII) (SEQ ID NO:5). The concentration of proMMP9(67-444;ΔFnII) (SEQ ID NO:5) was determined spectrophotometrically based on a calculated extinction coefficient of ε280=33900 M^−1 cm^−1, a calculated molecular weight of 22.6 kDa, and calculated pI of 5.20. ThermoFluor® reference conditions were defined as follows: 80 μg/mL (3.5 μM) proMMP9(67-444;ΔFnII) (SEQ ID NO:5), 50 μM 1,8-ANS, pH 7.0 Buffer (50 mM HEPES pH 7.0, 100 mM NaCl, 0.001% Tween-20, 2.5 mM MgCl2, 300 μM CaCl2). The thermodynamic parameters for proMMP9(67-444;ΔFnII) (SEQ ID NO:5) are as follows: Tm (° C.)=63 (+/−0.1), ΔUH(Tm)(cal mol^−1)=105000(+/−5000), ΔUS(Tm) (cal mol^−1 K^−1)=450, ΔUCp (cal mol^−1 K^−1)=2000.

[3] = biological target: T3, full-length proMMP9(1-707) activation by catalytic MMP3 (Homo sapiens, UniProt P14780, R574P); assay: proMMP9/MMP3 P126 Activation Assay; format: biochemical
T3 construct: made in house; host or cells: proMMP9: HEK293 (secreted); MMP3: E. coli
T3 sequence (P14780 20-707 R574P): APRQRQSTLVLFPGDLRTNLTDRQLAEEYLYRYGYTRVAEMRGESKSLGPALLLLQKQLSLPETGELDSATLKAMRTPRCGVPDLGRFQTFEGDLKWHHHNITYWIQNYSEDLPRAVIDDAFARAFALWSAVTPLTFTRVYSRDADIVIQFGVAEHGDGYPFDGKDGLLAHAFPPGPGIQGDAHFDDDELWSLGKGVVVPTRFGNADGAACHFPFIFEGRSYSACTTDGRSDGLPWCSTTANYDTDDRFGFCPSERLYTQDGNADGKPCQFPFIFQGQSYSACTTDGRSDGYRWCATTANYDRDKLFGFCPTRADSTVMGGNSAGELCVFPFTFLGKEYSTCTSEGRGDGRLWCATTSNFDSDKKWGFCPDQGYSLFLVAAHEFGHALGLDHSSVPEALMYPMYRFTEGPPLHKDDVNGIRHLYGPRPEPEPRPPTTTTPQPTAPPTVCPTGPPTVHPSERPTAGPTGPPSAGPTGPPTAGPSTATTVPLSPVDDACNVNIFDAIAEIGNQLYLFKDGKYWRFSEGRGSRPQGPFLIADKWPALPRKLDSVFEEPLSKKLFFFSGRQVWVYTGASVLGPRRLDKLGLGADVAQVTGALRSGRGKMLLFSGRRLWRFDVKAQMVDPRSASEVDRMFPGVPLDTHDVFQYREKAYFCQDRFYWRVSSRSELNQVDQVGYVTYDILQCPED
Experimental: proMMP9/MMP3 P126 Activation Assay
The reaction volume was 50 μL. […] Reactivity of residual MMP3 towards P-126 substrate was minimal under these conditions.

Row | SMILES | Kd [1] | Kd [2] | IC50 [3]
1 | Cn1cnc2c3nc(Nc4cc(S(N)(=O)=O)ccc4OC(F)(F)F)sc3ccc21 [Example 64, 3-(6-Methyl-6H-imidazo[4′,5′:3,4]benzo[2,1-d]thiazol-2-ylamino)-4-trifluoromethoxy-benzenesulfonamide.HCl] | 970 nM | 900 nM | 150 nM
2 | CCOP(=O)(OCC)c1ccc(OC)c(Nc2nc3c(ccc4c3ncn4C)s2)c1 [Example 66, [4-Methoxy-3-(6-methyl-6H-imidazo[4′,5′:3,4]benzo[2,1-d]thiazol-2-ylamino)-phenyl]-phosphonic acid diethyl ester.HCl] | 5900 nM | 1700 nM | 2300 nM
3 | COc1ccc(P(=O)(O)O)cc1Nc1nc2c(ccc3c2ncn3C)s1 [Example 68, [4-Methoxy-3-(6-methyl-6H-imidazo[4′,5′:3,4]benzo[2,1-d]thiazol-2-ylamino)-phenyl]-phosphonic acid.HCl] | 7500 nM | 12000 nM | 7500 nM
4 | COc1ccc(S(=O)(=O)N2CCCC2)cc1Nc1nc2c(ccc3c2ncn3C)s1 [Example 72, [2-Methoxy-5-(pyrrolidine-1-sulfonyl)-phenyl]-(6-methyl-6H-imidazo[4′,5′:3,4]benzo[2,1-d]thiazol-2-yl)-amine.HCl] | 2100 nM | 1600 nM | 460 nM
5 | COc1ccc([N+](=O)[O-])cc1Nc1nc2c(ccc3c2ncn3C)s1 [Example 76, (2-Methoxy-5-nitro-phenyl)-(6-methyl-6H-imidazo[4′,5′:3,4]benzo[2,1-d]thiazol-2-yl)-amine.HCl] | 530 nM | 380 nM | 100 nM
6 | Cn1cnc2c3nc(Nc4ccccc4[N+](=O)[O-])sc3ccc21 [Example 77, (6-Methyl-6H-imidazo[4′,5′:3,4]-benzo[2,1-d]thiazol-2-yl)-(2-nitro-phenyl)-amine.HCl] | 3200 nM | 2600 nM | 1100 nM
7 | COc1ccc(Nc2nc3c(ccc4c3ncn4C)s2)c(OC)c1 [Example 78, (2,4-Dimethoxy-phenyl)-(6-methyl-6H-imidazo[4′,5′:3,4]-benzo[2,1-d]thiazol-2-yl)-amine.HCl] | 10000 nM | 3400 nM | 4000 nM
8 | COc1ccc(S(=O)(=O)N2CCCCC2)cc1Nc1nc2c(ccc3c2ncn3C)s1 [Example 80, [2-Methoxy-5-(piperidine-1-sulfonyl)-phenyl]-(6-methyl-6H-imidazo[4′,5′:3,4]-benzo[2,1-d]thiazol-2-yl)-amine.HCl] | 2300 nM | 960 nM | 740 nM
9 | COc1ccc(S(=O)(=O)N2CCOCC2)cc1Nc1nc2c(ccc3c2ncn3C)s1 [Example 81, [2-Methoxy-5-(morpholine-4-sulfonyl)-phenyl]-(6-methyl-6H-imidazo[4′,5′:3,4]benzo[2,1-d]thiazol-2-yl)-amine.HCl] | 5200 nM | 1200 nM | 750 nM

Other lines, results leading:

Row | Kd [1] | Kd [2] | IC50 [3] | SMILES
10 | 77 nM | 250 nM | 150 nM | Cn1cnc2c3nc(Nc4cc(C(N)=O)ccc4OC(F)(F)F)sc3ccc21 [Example 65, 3-(6-Methyl-6H-imidazo[4′,5′:3,4]-benzo[2,1-d]thiazol-2-ylamino)-4-trifluoromethoxy-benzamide.HCl]
11 | 87 nM | 77 nM | 100 nM | COc1ccc(C#N)cc1Nc1nc2c(ccc3c2ncn3C)s1 [Example 67, 4-Methoxy-3-(6-methyl-6H-imidazo[4′,5′:3,4]benzo[2,1-d]thiazol-2-ylamino)-benzonitrile.HCl]
12 | 430 nM | 220 nM | 300 nM | COc1ccc(Br)cc1Nc1nc2c(ccc3c2ncn3C)s1 [Example 69, (5-Bromo-2-methoxy-phenyl)-(6-methyl-6H-imidazo[4′,5%3,4]benzo[2,1-d]thiazol-2-yl)-amine.HCl]
13 | 560 nM | 120 nM | 310 nM | COc1ccc(-c2cn[nH]c2)cc1Nc1nc2c(ccc3c2ncn3C)s1 [Example 70, [2-Methoxy-5-(1H-pyrazol-4-yl)-phenyl]-(6-methyl-6H-imidazo[4′,5%3,4]benzo[2,1-d]thiazol-2-yl)-amine.HCl]
14 | 2000 nM | 1600 nM | 1500 nM | CCN(CC)S(=O)(=O)c1ccc(OC)c(Nc2nc3c(ccc4c3ncn4C)s2)c1 [Example 71, N,N-Diethyl-4-methoxy-3-(6-methyl-6H-imidazo[4′,5′:3,4]-benzo[2,1-d]thiazol-2-ylamino)-benzenesulfonamide.HCl]
15 | 13000 nM | 7500 nM | 5800 nM | Cn1cnc2c(Nc3nc4c(ccc5c4ncn5C)s3)cccc21 [Example 73, (1-Methyl-1H-benzoimidazol-4-yl)-(6-methyl-6H-imidazo[4′,5′:3,4]-benzo[2,1-d]thiazol-2-yl)-amine.HCl]
16 | 6000 nM | 3700 nM | 4700 nM | COc1ncccc1Nc1nc2c(ccc3c2ncn3C)s1 [Example 74, (2-Methoxy-pyridin-3-yl)-(6-methyl-6H-imidazo[4′,5′:3,4]-benzo[2,1-d]thiazol-2-yl)-amine.HCl]
17 | > 95000 nM | 15000 nM | ~18000 nM | Cn1cnc2c3nc(Nc4cccnc4)sc3ccc21 [Example 75, (6-Methyl-6H-imidazo[4′,5′:3,4]-benzo[2,1-d]thiazol-2-yl)-pyridin-3-yl-amine.HCl]
18 | 3200 nM | 930 nM | 390 nM | COc1ccc(N)cc1Nc1nc2c(ccc3c2ncn3C)s1 [Example 79, 4-Methoxy-N^3-(6-methyl-6H-imidazo[4′,5′:3,4]-benzo[2,1-d]thiazol-2-yl)-benzene-1,3-diamine.HCl]
